In publication PMC10301845, “Characterization of a Novel M4 PAM PET Radioligand [11C]PF06885190 in Nonhuman Primates (NHP)” (Molecules, 2023):

System: M4
Test: PET measurements of brain distribution in NHP (SUV, VT by 1-TC and Logan)
Format: in vivo, cynomolgus monkey (Macaca fascicularis)
Design: VT 1-TC Baseline: unit not given here
Conditions: for VT 1-TC %Decrease / VT Logan %Decrease: baseline vs pretreatment with CVL-231; for VT 1-TC Pretreatment / VT Logan Pretreatment: pretreatment with CVL-231
Protocol: Two male cynomolgus monkeys (Macaca fascicularis, NHP) M1 and M2, with body weight of 7.8 kg and 7.1 kg, respectively, were studied on three different experimental days for a total of six PET measurements. Both NHPs underwent two PET measurements on the same day. The first PET measurement was performed with [^11C]PF06885190, followed by the second PET measurement after pretreatment with either CVL-231 or donepezil. CVL-231 (0.24 mg/kg, IV) was administrated 10 min before the administration of [^11C]PF06885190 via a constant infusion (0.0027 mg/min/kg) throughout the whole PET measurement. Donepezil (0.25 mg/kg) was administrated 30 min before the administration of [^11C]PF06885190. Both NHPs were supplied by the Astrid Fagraeus Laboratory of the Swedish Institute for Infectious Disease Control (SMI), Solna, Sweden. The study was approved by the Animal Ethics Committee of the Swedish Animal Welfare Agency and was performed according to “Guidelines for planning, conducting and documenting experimental research” (Dnr 4820/06-600) of the KI as well as the “Guide for the Care and Use of Laboratory Animals” [26]. Anesthesia was initiated at Astrid Fagraeus Laboratory either by intramuscular injection of ketamine hydrochloride (10 mg/kg) and maintained by the administration of a mixture of isoflurane, oxygen, and medical air through endotracheal intubation, or by intravenous infusion of a mixture of ketamine hydrochloride (4 mg/kg/h) and xylazine hydrochloride (0.4 mg/kg/h). To fix the position of the head of the NHP during the course of whole PET measurement, a prototype device was used. Body temperature was maintained by a Bair Hugger-Model 505 (Arizant Health Care Inc., Eden Prairie, MN 55344, USA) and monitored by an oral thermometer. ECG, heart rate, respiratory rate and oxygen saturation were continuously monitored throughout the experiments and blood pressure was monitored every 15 min.
All the PET measurements in this study were performed by using a High Resolution Research Tomograph (HRRT) (Siemens Molecular Imaging) scanner. The corresponding in-plane resolution with OP-3D-OSEM PSF was 1.5 mm full width at half-maximum (FWHM) at the center of the field of view (FOV) and 2.4 mm at 10 cm off-center directions. List-mode data were acquired continuously for 123 min immediately after intravenous injection of [^11C]PF06885190. Images were reconstructed by the ordinary Poisson-3D-ordered subset expectation maximization (OP-3D-OSEM) algorithm. Prior to each PET acquisition, a 6 min transmission scan was performed, using a single ^137Cs source, for attenuation and scatter correction. Brain magnetic resonance imaging was performed in a 1.5-T GE Signa system (General Electric, Milwaukee, WI, USA). A T1-weighted image was obtained for co-registration with PET and delineation of anatomic brain regions. The T1 sequence was a 3D spoiled gradient-recalled (SPGR) protocol with the following settings: repetition time (TR) 21 ms, flip angle 35°; FOV 12.8; matrix 256 × 256 × 128; 128 × 1.0 mm slices; 2 NEX. The sequence was optimized for trade-off between a minimum of scanning time and a maximum of spatial resolution and contrast between gray and white matter.
For both NHPs, the radioligand [^11C]PF06885190 was administrated with an intravenous (i.v.) injection. The regions of interests (ROIs) were delineated manually on MRI images of each NHP for the whole brain, cerebellum, caudate, putamen, thalamus, frontal cortex, temporal cortex, hippocampus, anterior cingulate cortex, posterior cingulate cortex, parietal cortex, occipital cortex, amygdala, ventral striatum and insula. The summed PET images of the whole duration were co-registered to the MRI image of the individual NHP. After applying the co-registration parameters to the dynamic PET data, the time-activity curves (TACs) of brain regions were generated for each PET measurement. Standardized uptake value (SUV) was calculated for each brain region. […]

[1] = anterior cingulate cortex, baseline
[2] = posterior cingulate cortex, baseline

Cc1nc(N[11CH3])c2c(c1C)CN(C(=O)C[C@H]1C[C@@H]1c1ccc(F)nc1)C2 [[^11C]PF06885190]
Change of VT from baseline (after pretreatment with M4 PAM CVL-231): around −10%
VT 1-TC Baseline (amygdala, baseline): 2.290
VT Logan Baseline (amygdala, baseline): 2.549
VT 1-TC %Decrease (amygdala): 6.7%
VT Logan %Decrease (amygdala): 9.6%
VT 1-TC Pretreatment (amygdala): 2.137
VT Logan Pretreatment (amygdala): 2.304
VT 1-TC Baseline [1]: 2.245
VT Logan Baseline [1]: 2.503
VT 1-TC %Decrease (anterior cingulate cortex): 9.6%
VT Logan %Decrease (anterior cingulate cortex): 8.4%
VT 1-TC Pretreatment (anterior cingulate cortex): 2.030
VT Logan Pretreatment (anterior cingulate cortex): 2.293
VT 1-TC %Decrease (average of brain regions): 10.3%
VT Logan %Decrease (average of brain regions): 12%
Whole brain uptake at peak (baseline conditions, i.v.): 2.0–4.1 SUV
wash-out: time to drop to half of the peak (brain, baseline): around 10 min
VT 1-TC Baseline (caudate, baseline): 2.388
VT Logan Baseline (caudate, baseline): 2.683
VT 1-TC %Decrease (caudate): 1.3%
VT Logan %Decrease (caudate): 7.8%
VT 1-TC Pretreatment (caudate): 2.357
VT Logan Pretreatment (caudate): 2.475
VT 1-TC Baseline (cerebellum, baseline): 2.205
VT Logan Baseline (cerebellum, baseline): 3.055
VT 1-TC %Decrease (cerebellum): 15.0%
VT Logan %Decrease (cerebellum): 21.4%
VT 1-TC Pretreatment (cerebellum): 1.875
VT Logan Pretreatment (cerebellum): 2.401
change of VT after administration of donepezil (donepezil 0.25 mg/kg 30 min before radioligand): No significant change
VT 1-TC Baseline (frontal cortex, baseline): 2.521
VT Logan Baseline (frontal cortex, baseline): 2.940
VT 1-TC %Decrease (frontal cortex): 15.1%
VT Logan %Decrease (frontal cortex): 18.6%
VT 1-TC Pretreatment (frontal cortex): 2.140
VT Logan Pretreatment (frontal cortex): 2.394
VT 1-TC Baseline (hippocampus, baseline): 2.361
VT Logan Baseline (hippocampus, baseline): 2.595
VT 1-TC %Decrease (hippocampus): 9.1%
VT Logan %Decrease (hippocampus): 9.8%
VT 1-TC Pretreatment (hippocampus): 2.146
VT Logan Pretreatment (hippocampus): 2.341
VT 1-TC Baseline (insula, baseline): 2.617
VT Logan Baseline (insula, baseline): 2.811
VT 1-TC %Decrease (insula): 11.6%
VT Logan %Decrease (insula): 6.4%
VT 1-TC Pretreatment (insula): 2.314
VT Logan Pretreatment (insula): 2.631
VT 1-TC Baseline (occipital cortex, baseline): 2.871
VT Logan Baseline (occipital cortex, baseline): 3.534
VT 1-TC %Decrease (occipital cortex): 14.2%
VT Logan %Decrease (occipital cortex): 18.7%
VT 1-TC Pretreatment (occipital cortex): 2.462
VT Logan Pretreatment (occipital cortex): 2.873
VT 1-TC Baseline (parietal cortex, baseline): 2.515
VT Logan Baseline (parietal cortex, baseline): 2.709
VT 1-TC %Decrease (parietal cortex): 16.1%
VT Logan %Decrease (parietal cortex): 14.5%
VT 1-TC Pretreatment (parietal cortex): 2.109
VT Logan Pretreatment (parietal cortex): 2.316
VT 1-TC Baseline [2]: 2.384
VT Logan Baseline [2]: 2.723
VT 1-TC %Decrease (posterior cingulate cortex): 17.7%
VT Logan %Decrease (posterior cingulate cortex): 18.3%
VT 1-TC Pretreatment (posterior cingulate cortex): 1.963
VT Logan Pretreatment (posterior cingulate cortex): 2.225
decrease after pretreatment (pretreatment with specific M4 ligand CVL-231): 10%
VT 1-TC Baseline (putamen, baseline): 2.632
VT Logan Baseline (putamen, baseline): 3.006
VT 1-TC %Decrease (putamen): 3.5%
VT Logan %Decrease (putamen): 7.0%
VT 1-TC Pretreatment (putamen): 2.539
VT Logan Pretreatment (putamen): 2.795
VT 1-TC Baseline (temporal cortex, baseline): 2.690
VT Logan Baseline (temporal cortex, baseline): 2.992
VT 1-TC %Decrease (temporal cortex): 11.4%
VT Logan %Decrease (temporal cortex): 9.2%
VT 1-TC Pretreatment (temporal cortex): 2.383
VT Logan Pretreatment (temporal cortex): 2.717
VT 1-TC Baseline (thalamus, baseline): 2.496
VT Logan Baseline (thalamus, baseline): 2.778
VT 1-TC %Decrease (thalamus): 6.4%
VT Logan %Decrease (thalamus): 14.8%
VT 1-TC Pretreatment (thalamus): 2.337
VT Logan Pretreatment (thalamus): 2.367
VT 1-TC Baseline (ventral striatum, baseline): 2.305
VT Logan Baseline (ventral striatum, baseline): 2.398
VT 1-TC %Decrease (ventral striatum): 7.0%
VT Logan %Decrease (ventral striatum): 3.1%
VT 1-TC Pretreatment (ventral striatum): 2.144
VT Logan Pretreatment (ventral striatum): 2.324
